ChEMBL document CHEMBL1127849, “Benzisoxazole- and benzisothiazole-3-carboxamides as potential atypical antipsychotic agents” (J Med Chem, 1994)

Assays:
[1] = target: T1, 5-hydroxytryptamine receptor 1A (Rattus norvegicus, UniProt P19327); assay: In vitro affinity towards 5-hydroxytryptamine 1A receptor using [3H]8-OH-DPAT as radioligand in hippocampus; type: tissue-based
T1 sequence (P19327 whole entry): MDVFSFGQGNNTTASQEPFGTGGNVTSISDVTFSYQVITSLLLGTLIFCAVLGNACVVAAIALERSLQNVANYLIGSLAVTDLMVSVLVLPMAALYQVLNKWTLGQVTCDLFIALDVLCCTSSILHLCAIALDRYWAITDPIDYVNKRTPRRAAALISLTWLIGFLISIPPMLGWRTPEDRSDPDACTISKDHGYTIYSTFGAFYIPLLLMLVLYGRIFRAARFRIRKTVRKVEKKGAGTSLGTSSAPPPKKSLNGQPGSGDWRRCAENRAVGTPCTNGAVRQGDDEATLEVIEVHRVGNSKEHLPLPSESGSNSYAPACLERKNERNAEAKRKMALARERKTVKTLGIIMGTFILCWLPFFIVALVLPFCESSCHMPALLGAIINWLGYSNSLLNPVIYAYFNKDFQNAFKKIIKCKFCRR

[2] = target: T2, Adrenergic receptor alpha-1 (Rattus norvegicus, UniProt P15823+P23944+P43140); assay: Its affinity towards alpha-1 receptor using [3H]WB-4101 as radioligand in whole brain minus cerebellum; type: tissue-based
T2 sequence (P15823 whole entry): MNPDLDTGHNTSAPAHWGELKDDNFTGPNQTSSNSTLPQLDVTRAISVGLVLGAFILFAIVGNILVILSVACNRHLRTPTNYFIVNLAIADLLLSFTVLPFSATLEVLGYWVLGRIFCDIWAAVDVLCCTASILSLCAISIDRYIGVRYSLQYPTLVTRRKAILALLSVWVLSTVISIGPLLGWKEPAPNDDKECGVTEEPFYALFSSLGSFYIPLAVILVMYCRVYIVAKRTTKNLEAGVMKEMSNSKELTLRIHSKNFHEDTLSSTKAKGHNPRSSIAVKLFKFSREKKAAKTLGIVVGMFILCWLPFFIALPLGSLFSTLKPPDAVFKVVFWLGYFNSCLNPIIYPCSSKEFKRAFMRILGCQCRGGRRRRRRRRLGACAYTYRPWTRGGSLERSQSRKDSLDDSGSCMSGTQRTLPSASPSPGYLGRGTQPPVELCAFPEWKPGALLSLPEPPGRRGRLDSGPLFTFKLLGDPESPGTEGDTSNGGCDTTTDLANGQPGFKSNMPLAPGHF
T2 sequence (P23944 whole entry): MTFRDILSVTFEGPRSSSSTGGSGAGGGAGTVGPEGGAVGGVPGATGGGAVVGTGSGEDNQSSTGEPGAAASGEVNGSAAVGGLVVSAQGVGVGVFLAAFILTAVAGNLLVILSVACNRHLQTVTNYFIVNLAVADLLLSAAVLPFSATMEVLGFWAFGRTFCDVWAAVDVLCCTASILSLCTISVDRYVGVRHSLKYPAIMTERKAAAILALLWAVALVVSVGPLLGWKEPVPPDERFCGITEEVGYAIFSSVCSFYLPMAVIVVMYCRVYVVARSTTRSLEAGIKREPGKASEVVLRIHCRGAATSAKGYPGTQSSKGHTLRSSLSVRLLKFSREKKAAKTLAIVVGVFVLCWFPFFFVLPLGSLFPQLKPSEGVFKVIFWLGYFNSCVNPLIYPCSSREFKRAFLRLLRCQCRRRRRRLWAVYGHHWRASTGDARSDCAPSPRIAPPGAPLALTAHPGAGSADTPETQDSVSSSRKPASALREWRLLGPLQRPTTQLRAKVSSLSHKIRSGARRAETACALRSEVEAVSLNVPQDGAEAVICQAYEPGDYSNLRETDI
T2 sequence (P43140 whole entry): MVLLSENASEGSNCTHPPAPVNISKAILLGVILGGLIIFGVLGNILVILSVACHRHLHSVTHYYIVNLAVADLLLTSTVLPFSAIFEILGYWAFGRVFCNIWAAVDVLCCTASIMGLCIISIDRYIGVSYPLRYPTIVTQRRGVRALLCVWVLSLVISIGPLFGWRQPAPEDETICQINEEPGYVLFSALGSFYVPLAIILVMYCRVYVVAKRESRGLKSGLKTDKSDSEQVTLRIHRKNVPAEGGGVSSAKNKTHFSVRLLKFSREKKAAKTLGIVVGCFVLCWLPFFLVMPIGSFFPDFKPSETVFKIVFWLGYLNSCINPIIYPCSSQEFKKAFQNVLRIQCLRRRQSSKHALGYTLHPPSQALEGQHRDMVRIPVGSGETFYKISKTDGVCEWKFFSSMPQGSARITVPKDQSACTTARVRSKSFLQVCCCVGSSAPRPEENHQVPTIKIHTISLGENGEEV

Mus musculus [3] = assay: In vivo effective dose for inhibition of apomorphine-induced climbing in mice after intraperitoneal administration at a dose 20 mg/kg; type: functional; details: ip
[4] = target: 5-hydroxytryptamine receptor 2A (Rattus norvegicus, UniProt P14842); assay: In vitro affinity towards 5-hydroxytryptamine 2A receptor using [3H]spiroperidol as radioligand in cortex
Sequence of 5-hydroxytryptamine receptor 2A (P14842 whole entry): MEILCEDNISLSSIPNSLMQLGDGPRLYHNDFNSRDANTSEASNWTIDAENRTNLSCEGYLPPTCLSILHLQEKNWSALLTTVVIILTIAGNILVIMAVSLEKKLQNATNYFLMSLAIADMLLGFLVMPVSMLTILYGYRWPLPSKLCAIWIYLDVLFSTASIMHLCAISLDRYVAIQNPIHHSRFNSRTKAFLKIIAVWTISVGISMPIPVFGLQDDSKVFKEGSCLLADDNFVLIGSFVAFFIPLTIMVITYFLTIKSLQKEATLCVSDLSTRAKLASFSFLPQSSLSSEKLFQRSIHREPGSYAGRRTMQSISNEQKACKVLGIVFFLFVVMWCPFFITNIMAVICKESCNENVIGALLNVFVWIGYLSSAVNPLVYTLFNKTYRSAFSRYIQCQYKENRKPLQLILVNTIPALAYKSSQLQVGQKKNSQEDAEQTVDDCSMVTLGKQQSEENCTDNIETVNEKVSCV

Rattus norvegicus [5] = assay: Compound was evaluated in vivo for its antipsychotic activity for inhibition of apomorphine-induced stereotypy in rat; type: functional
Rattus norvegicus [6] = assay: Compound was evaluated in vivo for its antipsychotic activity for inhibition of apomorphine-induced stereotypy in rat after intraperitoneal administration of a dose of 40 mg/kg value represented as percent inhibition; type: functional; details: ip
Rattus norvegicus [7] = assay: Compound was evaluated in vivo for its antipsychotic activity for inhibition of apomorphine-induced stereotypy in rat after intraperitoneal administration of a dose of 10 mg/kg; type: functional; details: ip
Rattus norvegicus [8] = assay: Compound was evaluated in vivo for its antipsychotic activity for inhibition of apomorphine-induced stereotypy in rat after intraperitoneal administration of a dose of 13 mg/kg; type: functional; details: ip
Rattus norvegicus [9] = assay: Compound was evaluated in vivo for its antipsychotic activity for inhibition of apomorphine-induced stereotypy in rat after intraperitoneal administration of a dose of 40 mg/kg; type: functional; details: ip
Rattus norvegicus [10] = assay: Compound was evaluated in vivo for its antipsychotic activity for inhibition of apomorphine-induced stereotypy in rat after intraperitoneal administration at a dose of 40 mg/kg; type: functional; details: ip
Mus musculus [11] = assay: In vivo for its effective dose for inhibition of apomorphine-induced climbing in mice after intraperitoneal administration at a dose 20 mg/kg; type: functional; details: ip
Rattus norvegicus [12] = assay: Compound evaluated in vivo for its antipsychotic activity for inhibition of apomorphine-induced stereotypy in rat after intraperitoneal administration of a dose of 13 mg/kg; type: functional; details: ip

SMILES	IC50 [1] [nM]	IC50 [2] [µM]	ED50 (Mus musculus [3]) [mg/kg]	IC50 [4] [nM]	other results
CN(CCN1CCC(C(=O)c2ccc(F)cc2)CC1)C(=O)c1nsc2ccccc12	2500	0.0753	8	51	
CC(C)N(CCCN1CCC(C(=O)c2ccc(F)cc2)CC1)C(=O)c1noc2ccccc12	2300	0.124	20.2	290	
COc1ccccc1N1CCN(CCNC(=O)c2nsc3ccccc23)CC1	3.9	0.0041		550	ED50 (Rattus norvegicus [5]): 51.8 mg/kg
COc1ccccc1N1CCN(CCCCNC(=O)c2nsc3ccccc23)CC1	2.3	0.0064	7.24	724	inhibition in vivo at 40 mg/kg (Rattus norvegicus [6]): 83%
CN(CCCCN1CCC(c2noc3cc(F)ccc23)CC1)C(=O)c1nsc2ccccc12	160	0.174		13	inhibition in vivo at 10 mg/kg (Rattus norvegicus [7]): 67%
CN(CCN1CCC(c2noc3cc(F)ccc23)CC1)C(=O)c1noc2ccccc12	440	0.104	1.3	17.6	inhibition in vivo at 13 mg/kg (Rattus norvegicus [8]): 33%
COc1ccccc1N1CCN(CCCNC(=O)c2nsc3ccccc23)CC1	84.7	0.0183	13	3110	inhibition in vivo at 40 mg/kg (Rattus norvegicus [9]): 17%
O=C(NCCN1CCN(c2cccc(Cl)c2)CC1)c1nsc2ccccc12	51.6	0.0815	> 20	726	
CN(CCCCN1CCN(c2csc3cc(F)ccc23)CC1)C(=O)c1noc2ccccc12	128	0.0032		188	ED50 (Rattus norvegicus [5]): 52 mg/kg
CN(CCCN1CCC(C(=O)c2ccc(F)cc2)CC1)C(=O)c1nsc2ccccc12	4670	0.00611	7.7	68	
CN1CCN(C2=Nc3cc(Cl)ccc3Nc3ccccc32)CC1 [CLOZAPINE]					inhibition in vivo at 40 mg/kg (Rattus norvegicus [9]): 33%
Cc1nc2n(c(=O)c1CCN1CCC(c3noc4cc(F)ccc34)CC1)CCCC2 [RISPERIDONE]			0.062		ED50 (Rattus norvegicus [5]): 3.2 mg/kg
COc1ccccc1N1CCN(CCNC(=O)c2noc3ccccc23)CC1	21	0.0021	> 20	391	
CN(CCCN1CCC(C(=O)c2ccc(F)cc2)CC1)C(=O)c1noc2ccccc12	6650	0.043	> 20	123	
O=C(NCCN1CCC(C(=O)c2ccc(F)cc2)CC1)c1nsc2ccccc12	920	0.0157	3.64	17	ED50 (Rattus norvegicus [5]): 25.7 mg/kg
O=C(NCCCCN1CCN(c2nsc3ccccc23)CC1)c1nsc2ccccc12	18	0.005		201	inhibition in vivo at 40 mg/kg (Rattus norvegicus [10]): 17%

SMILES	IC50 [1] [nM]	IC50 [2] [µM]	ED50 (Mus musculus [3]) [mg/kg]	IC50 [4] [nM]	other results
COc1ccccc1N1CCN(CCCCN(C)C(=O)c2nsc3ccccc23)CC1	4	0.0033	9.61		inhibition in vivo at 40 mg/kg (Rattus norvegicus [9]): 100%
O=C(NCCN1CCN(c2csc3cc(F)ccc23)CC1)c1noc2ccccc12	1040	> 10		309	inhibition in vivo at 40 mg/kg (Rattus norvegicus [9]): 17%
CN(CCCCN1CCN(c2csc3cc(F)ccc23)CC1)C(=O)c1nsc2ccccc12	366	0.0063		232	ED50 (Rattus norvegicus [5]): 33 mg/kg
COc1ccccc1N1CCN(CCCN(C)C(=O)c2nsc3ccccc23)CC1	149	0.0107	> 20	1650	
CN(CCCCN1CCN(c2nsc3ccccc23)CC1)C(=O)c1nsc2ccccc12	18.6	0.0058		13	ED50 (Mus musculus [11]): 2.49 mg/kg; ED50 (Rattus norvegicus [5]): 39.2 mg/kg
CN(CCN1CCC(C(=O)c2ccc(F)cc2)CC1)C(=O)c1noc2ccccc12	1790	0.1082	13.4	27	
CN(CCN1CCC(c2noc3cc(F)ccc23)CC1)C(=O)c1nsc2ccccc12	820	0.0094	1.7	32.8	inhibition in vivo at 13 mg/kg (Rattus norvegicus [12]): 50%
O=C(NCCN1CCN(Cc2ccccc2)CC1)c1nsc2ccccc12	1880	2.57	> 20		
O=C(NCCN1CCN(c2nsc3ccccc23)CC1)c1nsc2ccccc12	98	0.019	> 20	475	
CC(C)N(CCN1CCC(c2noc3cc(F)ccc23)CC1)C(=O)c1noc2ccccc12		0.0055	1.3	29.7	
CN1CCN(CCNC(=O)c2nsc3ccccc23)CC1	> 10000	> 10	> 20	> 10000	
O=C(NCCCN1CCC(c2noc3cc(Cl)ccc23)CC1)c1nsc2ccccc12	3720	0.0938	> 20	115	
O=C(NCCN1CCC(c2noc3cc(Cl)ccc23)CC1)c1nsc2ccccc12	3450	0.239	> 20	215	
O=C(NCCN1CCC(n2c(O)nc3ccccc32)CC1)c1nsc2ccccc12		0.0398	> 20	641	
CN(CCCCN1CCC(C(=O)c2ccc(F)cc2)CC1)C(=O)c1nsc2ccccc12	339	0.0032	8.2	30.2	inhibition in vivo at 40 mg/kg (Rattus norvegicus [9]): 60%
